One experiment has as its system Chlorella sp. ATCC 7516. In words: Algal efficacy testing of dry paint films (modified ASTM 5589, 6-well plates). The experiment is classed as cell-based. As to conditions: 504 h, 3 weeks, visible algal growth vs blank, pass level ≧75%; for inhibition at 1000 ppm: total conc 1000 ppm in paint. As for the experimental part:
(§1) Sample preparation for antimicrobial testing was performed as follows:
(§2) Slurries containing 33% antimicrobial active ingredient (Zoxamide) were post added to a white, acrylic/silicone based outdoor paint free of biocides to give a total active ingredient concentration of 10000 and 1000 ppm respectively. KATHON™ 893T (100% OIT) and ROCIMA™ 200 (20% DCOIT) were post added to a white, acrylic/silicone based outdoor paint free of biocides to give a total active ingredient concentration of 10000 and 1000 ppm respectively. These paints were then diluted with an antimicrobial free acrylic/silicone based paint and mixed to prepare targeted concentrations of antimicrobial compounds for the testing. The total biocides concentrations tested were 125, 250, 500, 1000, 2000 and 5000 ppm. After biocides addition or dilution, the paints were mixed 90 seconds with the horse power shaker (AXEL 75M3372/Agitateur SO-10MI) until uniformity was achieved. Paints containing different antimicrobial compounds at the same levels were mixed together in order to obtain the desired ratio of antimicrobial compounds. After one day, the paints were applied to Schleicher & Schuell filter paper at 280μm wet film thickness and dried for 3 days at room temperature avoiding direct exposure to sunlight. Square discs (1.6 cm×1.6 cm) were cut out from each panel and were used as the substrate for algal efficacy tests. This sample size allowed for an agar border when the sample disc was placed into the well of the test plate.
(§3) Algal efficacy was tested according to modified ASTM 5589 which is a standard accelerated test method for determining resistance of various coatings (including paints) to algal defacement. To accommodate for high-throughput screening, this method was scaled down from petri dishes to 6-well plates. Bold Modified Basal Freshwater Nutrient Solution was used as growth medium. A single coated filter paper coupon was placed with a pair of sterile forceps at the center of the agar plug (on top) with the painted surface facing upwards. Algal inoculums were prepared by mixing equal concentrations (1×10^6 cfu/ml) and equal volumes of exponentially growing algae cultures.
(§4) Each well that contains a tested coupon was inoculated with 1750 μl of algal suspensions (1×10^6 cfu/ml) making sure that the whole surface (paint film as well as the agar surrounding it) was evenly covered. The plates were incubated at room temp (21° C.-25° C.) with cyclic exposure to light and dark phases, for a period of three weeks.
(§5) At the end of the three week incubation period, the samples were scored for percent inhibition regarding visible algal growth compared to the blank sample (0% inhibition).
(§6) The Synergy Index calculation was performed as follows.
(§7) The SI is calculated based on F. C. Kull et.
(§8) SI value of <1 in the formula indicates a synergism of the blended biocides exists.
(§9) The minimal targeted inhibition was set at 75%, meaning a coupon with at least 75% algal growth inhibition was considered as a pass.

Experiment [1] relates to Stichococcus bacillaris SAG 379-1a / CCAP 379/1a. Described as above. The settings on record: 504 h, 3 weeks, visible algal growth vs blank, pass level ≧75%. In kind it is cell-based. The protocol:
as §1, §2, §3, §4, §5, §6, §7, §8, §9

Usually inhibition stands for the drop in the measured response relative to a control, in per cent.

As for `CCC(C)(NC(=O)c1cc(Cl)c(C)c(Cl)c1)C(=O)CCl` (centres unmarked) [Zoxamide], the figures for the inhibition at 5000 ppm (with Chlorella sp. ATCC 7516 (total conc 5000 ppm in paint); in experiment [1] (total conc 5000 ppm in paint)) were 60% and 45%, respectively. In the case of `CCCCCCCCn1sc(Cl)c(Cl)c1=O` [DCOIT, 4,5-dichloro-2-n-octyl-4-isothiazolin-3-one], the inhibition at 1000 ppm (with Chlorella sp. ATCC 7516; in experiment [1] (total conc 1000 ppm in paint)) was 85% each time. With `CCCCCCCCn1sccc1=O` [OIT, 2-n-octyl-4-isothiazolin-3-one], the inhibition at 1000 ppm with Chlorella sp. ATCC 7516 was 95%.

The record behind these values is US20150296786A1, “SYNERGISTIC COMBINATION OF A ZOXAMIDE COMPOUND AND ONE OF DCOIT OR OIT FOR DRY FILM PROTECTION” (ROHM AND HAAS COMPANY, priority 2012, published 2015).
